Reference: patent US4226610A, “Herbicidal compounds, preparation thereof and herbicides containing the same” (Meiji Selka Kaisha, Ltd., priority 1978, dated 1980)
Entries after “also recorded” stand apart in the source; their conditions may differ. Counter-ions that a name gives are not always drawn.

What was measured:
[1] = system: manna grass; test: Experiment 1 foliar application to naturally growing weeds; format: in vivo, Digitaria adsceudes Henr.; details: for Reproduction-inhibiting effect: 2 months; for Killing index of Upperground parts: 21 days
Source text: (§1) The detail of the assessment made in the following Experiments of the invention was as follows:
(§2) Four months after treatment, evaluation was made for inhibition of reproduction expressed in terms of symbols ranging from (-) to (+++) where (-) means no reproduction, namely complete suppression of reproduction, (±) remarkable suppression of reproduction; (+) considerable suppression of reproduction; (++) medium supprestion of reproduction; and (+++) no suppression of reproduction.
(§3) The compounds of the invention and other compounds for comparison listed in Table 3 were diluted to prescribed concentrations and sprayed to naturally growing weeds by foliar application in an amount of 150 liter per 10 are.
(§4) 0.1% of octylphenyl polyoxyethanol was added as a surfactant.
(§5) The killing index (0, no effect, 5, death) after 21 days, and the reproduction-inhibiting effect (-, no reproduction; +++, maximum reproduction) after 2 months (manna grass and cockspar grass) and 4 months (other weeds) were determined.

[2] = system: cockspar grass; test: as above; format: in vivo, Echinochloa Crusgalli P. Beauv.; details: for Reproduction-inhibiting effect: 2 months; for Killing index of Upperground parts: 21 days
Source text: as §1, §2, §3, §4, §5

[3] = system: yabugarashi; test: as above; format: in vivo, Cayratia japonica Houtt.; details: 4 months
Source text: as §1, §2, §3, §4, §5

[4] = system: purple nutsedge; test: as above; format: in vivo, Cyperus rotundus L.; details: 4 months
Source text: as §1, §2, §3, §4, §5

[5] = system: warunasubi; test: as above; format: in vivo, Solanum carolinensis L.; details: 4 months
Source text: as §1, §2, §3, §4, §5

[6] = system: hedge bindweed; test: as above; format: in vivo, Calystegis hederacea Wall.; details: 4 months
Source text: as §1, §2, §3, §4, §5

[7] = system: white clover; test: as above; format: in vivo, Trifolium repens L.; details: for Reproduction-inhibiting effect: 4 months
Source text: as §1, §2, §3, §4, §5

[8] = system: azumanezasa; test: as above; format: in vivo, Pleioblastus Chino Makino; details: for Reproduction-inhibiting effect: 4 months; for Killing index of Upperground parts: 21 days
Source text: as §1, §2, §3, §4, §5

[9] = system: chigaya; test: as above; format: in vivo, Imperata cylindrica Beauv.; details: 4 months
Source text: as §1, §2, §3, §4, §5

[10] = system: eulalia; test: Experiment 2 foliar application in Japanese cypress afforested land; format: in vivo, Miscanthus sinensis Andress.; set-up: key: 0 = no effect, 5 = death
Protocol: as §1
(§6) The compounds of the invention and other compounds listed in Table 4. were diluted to prescribed concentrations and sprayed to shrubs by foliar application in a Japanese cypress afforested land in an amount of 150 liter per 10 are.
(§7) After 30 days and 3 months, the killing index (0, no effect; 5, death) was determined.
(§8) The heights of plants were 50-70 cm. for Japanese cypress, about 50 cm. for chestnut, 50-90 cm. for miyakozasa, about 100 cm. for eulalia and 70-100 cm. for kumaichigo, respectively.

[11] = system: kumaichigo; test: as above; format: in vivo, Rubus crataegifolius Bunge; details: 0.125%; after 30 days; monosodium salt
Protocol: as §1, §6, §7, §8

[12] = system: Japanese bush cranberry; test: Experiment 3 foliar application to naturally growing shrubs; format: in vivo, Viburnum dilatatum Thunb.; details: after 3 months
Source text: as §1, §2
(§9) The compounds of the invention and other compounds listed in Table 5. were diluted to prescribed concentrations and sprayed onto naturally growing shrubs by foliar application in an amount of 150 liter per 10 are.
(§10) 0.1% of octylphenyl polyoxyethanol was added as the surfactant. The killing index (0, no effect; 5, death) after 1 month and 3 months, and the reproduction-inhibiting effect (-, no reproduction; +++, maximum reproduction) after 3 months were determined.

[13] = system: kiichigo; test: as above; format: in vivo, Rubus palmatsu Thunb. forma coptophyllus Makino
Source text: as §1, §2, §9, §10

[14] = system: Japanese prickly ash; test: as above; format: in vivo, Xanthoxylum piperitum DC.; details: after 3 months
Source text: as §1, §2, §9, §10

[15] = system: lace shrub; test: as above; format: in vivo, Stephanandra incisa Zabel; details: for Reproduction-inhibiting: after 3 months
Source text: as §1, §2, §9, §10

[16] = system: yamazakura; test: as above; format: in vivo, Prunus donarium Sieb. var. spontanae Makino; details: after 3 months
Source text: as §1, §2, §9, §10

[17] = system: torch azalea; test: as above; format: in vivo, Rhododendoron Kaempferi Planch.; details: after 3 months
Source text: as §1, §2, §9, §10

[18] = system: oak; test: as above; format: in vivo, Quercus serrata Thunb; details: after 3 months
Source text: as §1, §2, §9, §10

[19] = system: water hyacinth; test: Experiment 5 foliar application to water hyacinths; format: in vivo, Eichhornia crassipes Solms; details: 3 months
Source text: as §1, §2
Water was placed in 20 cm.×30 cm. plastic vessels and a liquid fertilizer was added thereto. Two water hyacinths were floated in each vessel.
0.1 or 0.2% aqueous solutions of each of the compounds of the invention listed in Table 7 were sprayed by foliar application in an amount of 100 liter per 10 are. As a surfactant, 0.1% of octylphenyl polyoxyethanol was added.
The killing index (0, no effect; 5, death) after 21 days and 3 months, and the reproduction-inhibiting effect (-, no reproduction; +++, maximum reproduction) after 3 months were determined.

[20] = system: weeds and shrubs; details: background statement; cited from earlier work
[21] = system: miyakozasa; test: Experiment 2 foliar application in Japanese cypress afforested land; format: in vivo, Sasa nipponica Makino et Shibata; details: 0.25%
Protocol: as §1, §6, §7, §8

[22] = 0.05%, after 3 months, monosodium salt
[23] = 0.05%, after 30 days, monosodium salt

CP(=O)(O)CC[C@H](N)C(=O)O [L-2-Amino-4-methylphosphinobutanoic acid monosodium salt]
Reproduction-inhibiting effect ([1]; 0.05%, monosodium salt): ++
Reproduction-inhibiting effect ([1]; 0.1%, monosodium salt): ±
Killing index of Upperground parts ([1]; 0.1%, monosodium salt): 4.5
Reproduction-inhibiting effect ([1]; 0.2%): -
Reproduction-inhibiting effect ([2]; 0.05%, monosodium salt): ++
Reproduction-inhibiting effect ([2]; 0.1%, monosodium salt): ±
Killing index of Upperground parts ([2]; 0.1%, monosodium salt): 4.5
Reproduction-inhibiting effect ([2]; 0.2%): -
Reproduction-inhibiting effect ([3]; 0.05%, monosodium salt): ++
Reproduction-inhibiting effect ([3]; 0.1%, monosodium salt): +
Reproduction-inhibiting effect ([3]; 0.2%, monosodium salt): ±
Reproduction-inhibiting effect ([4]; 0.05%, monosodium salt): +++
Reproduction-inhibiting effect ([4]; 0.1%, monosodium salt): +
Reproduction-inhibiting effect ([4]; 0.2%, monosodium salt): ±
Reproduction-inhibiting effect ([5]; 0.05%, monosodium salt): +++
Reproduction-inhibiting effect ([5]; 0.1%, monosodium salt): +
Reproduction-inhibiting effect ([5]; 0.2%, monosodium salt): ±
Reproduction-inhibiting effect ([6]; 0.05%, monosodium salt): +++
Reproduction-inhibiting effect ([6]; 0.1%, monosodium salt): ++
Reproduction-inhibiting effect ([6]; 0.2%, monosodium salt): +
Reproduction-inhibiting effect ([7]; 0.05%, monosodium salt): +++
Reproduction-inhibiting effect ([7]; 0.1%, monosodium salt): +
Killing index of Upperground parts ([7]; 0.1%, 21 days, monosodium salt): 4.5
Reproduction-inhibiting effect ([7]; 0.2%): -
Reproduction-inhibiting effect ([8]; 0.05%, monosodium salt): ++
Killing index of Upperground parts ([8]; 0.05%, monosodium salt): 2.5
Reproduction-inhibiting effect ([8]; 0.1%): -
Killing index of Upperground parts ([8]; 0.1%, monosodium salt): 4.5
Reproduction-inhibiting effect ([8]; 0.2%): -
Reproduction-inhibiting effect ([9]; 0.05%, monosodium salt): ++
Reproduction-inhibiting effect ([9]; 0.1%): -
Reproduction-inhibiting effect ([9]; 0.2%): -
Killing index ([10]; 0.125%, after 3 months, monosodium salt): 4.5
Killing index ([10]; 0.125%, after 30 days, monosodium salt): 3.5
Killing index [11]: 4.5
Reproduction-inhibiting ([12]; 0.05%, monosodium salt): +++
Reproduction-inhibiting ([12]; 0.1%, monosodium salt): ++
Reproduction-inhibiting ([12]; 0.2%): -
Killing index [13, 22]: 1.5
Reproduction-inhibiting [13, 22]: ++
Killing index [13, 23]: 3.5
Reproduction-inhibiting ([13]; 0.1%, after 3 months): -
Reproduction-inhibiting ([13]; 0.2%, after 3 months): -
Reproduction-inhibiting ([14]; 0.05%, monosodium salt): +++
Reproduction-inhibiting ([14]; 0.1%, monosodium salt): +
Reproduction-inhibiting ([14]; 0.2%): -
Reproduction-inhibiting ([15]; 0.05%, monosodium salt): ++
Killing index [15, 23]: 3.5
Reproduction-inhibiting ([15]; 0.1%): -
Reproduction-inhibiting ([15]; 0.2%): -
Killing index ([16]; 0.05%, monosodium salt): 1.5
Reproduction-inhibiting ([16]; 0.05%, monosodium salt): ++
Reproduction-inhibiting ([16]; 0.1%): -
Reproduction-inhibiting ([16]; 0.2%): -
Reproduction-inhibiting ([17]; 0.05%, monosodium salt): +++
Reproduction-inhibiting ([17]; 0.1%): -
Reproduction-inhibiting ([17]; 0.2%): -
Reproduction-inhibiting ([18]; 0.05%, monosodium salt): ++
Reproduction-inhibiting ([18]; 0.1%): -
Reproduction-inhibiting ([18]; 0.2%): -
Reproduction-inhibiting effect ([19]; 0.1%, listed as L-AMPB monosodium salt, monosodium salt): ±
Reproduction-inhibiting effect ([19]; 0.2%): -

O=C([O-])C(F)(F)C(F)F.[Na+] [sodium 2,2,3,3-tetrafluoropropionate]
Killing index ([10]; 0.5%, after 30 days): 4.5
Reproduction-inhibiting ([12]; 0.1%): +++
Reproduction-inhibiting ([12]; 0.2%): +++
Reproduction-inhibiting ([12]; 0.4%): +++
Reproduction-inhibiting ([13]; 0.1%, after 3 months): +++
Reproduction-inhibiting ([13]; 0.2%, after 3 months): +++
Reproduction-inhibiting ([13]; 0.4%, after 3 months): +++
Reproduction-inhibiting ([14]; 0.1%): +++
Reproduction-inhibiting ([14]; 0.2%): +++
Reproduction-inhibiting ([14]; 0.4%): +++
Reproduction-inhibiting ([15]; 0.1%): +++
Reproduction-inhibiting ([15]; 0.2%): +++
Reproduction-inhibiting ([15]; 0.4%): +++
Reproduction-inhibiting ([16]; 0.1%): +++
Reproduction-inhibiting ([16]; 0.2%): +++
Reproduction-inhibiting ([16]; 0.4%): +++
Reproduction-inhibiting ([17]; 0.1%): +++
Reproduction-inhibiting ([17]; 0.2%): +++
Reproduction-inhibiting ([17]; 0.4%): +++
Reproduction-inhibiting ([18]; 0.1%): +++
Reproduction-inhibiting ([18]; 0.2%): +++
Reproduction-inhibiting ([18]; 0.4%): +++
weeding effects of known herbicides in words [20]: effective for eulalia and bamboo grass; also recorded: not so effective for shrubs

C[C@H](NC(=O)[C@H](C)NC(=O)[C@@H](N)CCP(C)(=O)O)C(=O)O [(L-2-Amino-4-methylphosphinobutyryl)-L-alanyl-L-alanine mono] [(L-2-Amino-4-methylphosphinobutyryl)-L-alanyl-L-alanine monodiethanolammonium salt]
Reproduction-inhibiting effect ([1]; 0.05%): +++
Reproduction-inhibiting effect ([1]; 0.1%): ++
Killing index of Upperground parts ([1]; 0.1%): 3.5
Reproduction-inhibiting effect ([1]; 0.2%): -
Killing index of Upperground parts ([1]; 0.2%): 4.5
Reproduction-inhibiting effect ([2]; 0.05%): +++
Reproduction-inhibiting effect ([2]; 0.1%): ++
Killing index of Upperground parts ([2]; 0.1%): 3.5
Reproduction-inhibiting effect ([2]; 0.2%): -
Killing index of Upperground parts ([2]; 0.2%): 4.5
Reproduction-inhibiting effect ([3]; 0.05%): +++
Reproduction-inhibiting effect ([3]; 0.1%): ++
Reproduction-inhibiting effect ([3]; 0.2%): ±
Reproduction-inhibiting effect ([4]; 0.05%): +++
Reproduction-inhibiting effect ([4]; 0.1%): +++
Reproduction-inhibiting effect ([4]; 0.2%): +
Reproduction-inhibiting effect ([5]; 0.05%): +++
Reproduction-inhibiting effect ([5]; 0.1%): +++
Reproduction-inhibiting effect ([5]; 0.2%): +
Reproduction-inhibiting effect ([6]; 0.05%): +++
Reproduction-inhibiting effect ([6]; 0.1%): +++
Reproduction-inhibiting effect ([6]; 0.2%): +++
Reproduction-inhibiting effect ([7]; 0.05%): +++
Reproduction-inhibiting effect ([7]; 0.1%): +++
Reproduction-inhibiting effect ([7]; 0.2%): -
Reproduction-inhibiting effect ([8]; 0.05%): +++
Reproduction-inhibiting effect ([8]; 0.1%): +
Reproduction-inhibiting effect ([8]; 0.2%): -
Reproduction-inhibiting effect ([9]; 0.05%): +++
Reproduction-inhibiting effect ([9]; 0.1%): ++
Reproduction-inhibiting effect ([9]; 0.2%): -
Killing index ([21]; after 3 months): 4.5
Killing index ([21]; after 30 days): 4.5
Killing index ([10]; 0.25%, after 3 months): 4.5
Killing index ([10]; 0.25%, after 30 days): 4.5
Reproduction-inhibiting ([12]; 0.05%): +++
Reproduction-inhibiting ([12]; 0.1%): +
Reproduction-inhibiting ([12]; 0.2%): -
Reproduction-inhibiting ([13]; 0.05%, after 3 months): +++
Reproduction-inhibiting ([13]; 0.1%, after 3 months): +
Reproduction-inhibiting ([13]; 0.2%, after 3 months): -
Reproduction-inhibiting ([14]; 0.05%): +++
Reproduction-inhibiting ([14]; 0.1%): +
Reproduction-inhibiting ([14]; 0.2%): -
Reproduction-inhibiting ([15]; 0.05%): +++
Reproduction-inhibiting ([15]; 0.1%): ++
Reproduction-inhibiting ([15]; 0.2%): -
Reproduction-inhibiting ([16]; 0.05%): +++
Reproduction-inhibiting ([16]; 0.1%): ++
Reproduction-inhibiting ([16]; 0.2%): -
Reproduction-inhibiting ([17]; 0.05%): +++
Reproduction-inhibiting ([17]; 0.1%): ++
Reproduction-inhibiting ([17]; 0.2%): -
Reproduction-inhibiting ([18]; 0.05%): +++
Reproduction-inhibiting ([18]; 0.1%): ++
Reproduction-inhibiting ([18]; 0.2%): -
